The text below walks through data of patent US10329294B2, “Pyrazolopyrimidine inhibitors of IRAK4 activity” (MERCK SHARP & DOHME CORP., priority 2015, dated 2019).

The structures appear in SMILES notation. Structures can show the parent of a compound that is named as a salt.

For this assay, the target named is IRAK4 (Homo sapiens (Human), UniProt Q9NWZ3). Put plainly: IRAK4 Kinase Assay. In kind it is biochemical. Particulars: IMAP fluorescence polarization, 0.5 nM GST tagged IRAK4, 100 μM ATP, 30 minutes at 25° C.; read-out: IRAK4 IC50. A general note: Fluorescence polarisation rises when a labelled molecule tumbles more slowly, as on binding a larger partner.
Sequence of IRAK4 (Q9NWZ3 whole entry): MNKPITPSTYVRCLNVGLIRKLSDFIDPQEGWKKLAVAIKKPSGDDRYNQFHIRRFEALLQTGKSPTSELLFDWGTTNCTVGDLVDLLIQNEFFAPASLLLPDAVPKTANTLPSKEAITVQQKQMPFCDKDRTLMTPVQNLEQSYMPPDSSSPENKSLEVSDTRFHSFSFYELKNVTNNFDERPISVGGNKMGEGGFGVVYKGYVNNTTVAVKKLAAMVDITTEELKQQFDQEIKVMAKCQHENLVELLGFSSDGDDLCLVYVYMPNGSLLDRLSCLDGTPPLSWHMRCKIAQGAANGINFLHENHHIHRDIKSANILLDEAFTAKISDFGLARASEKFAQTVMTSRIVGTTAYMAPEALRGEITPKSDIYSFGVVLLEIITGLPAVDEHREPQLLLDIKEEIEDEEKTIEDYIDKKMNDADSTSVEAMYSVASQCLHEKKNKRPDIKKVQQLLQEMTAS

Consider `N[C@@H]1[C@H](Nc2ccn3ncc(C(=O)Nc4cn(C(F)F)nc4C(F)(F)F)c3n2)CCCC1(F)F` [Example 71, 5-{[(1R,2R)-2-amino-3,3-difluorocyclohexyl]amino}-N-[1-(difluoromethyl)-3-(trifluoromethyl)-1H-pyrazol-4-yl]pyrazolo[1,5-a]pyrimidine-3-carboxamide trifluoroacetate], for which the IC50 came to 328 nM.

Turning to `CN(C)[C@H]1CCCC[C@H]1Nc1ccn2ncc(C(=O)Nc3cn(C)nc3C(F)(F)F)c2n1` [Example 263, 5-(((1R,2S)-2-(Dimethylamino)cyclohexyl)amino)-N-(1-methyl-3-(trifluoromethyl)-1H-pyrazol-4-yl)pyrazolo[1,5-a]pyrimidine-3-carboxamide], the IC50 was 72 nM.

In the case of `Cn1cc(NC(=O)c2cnn3ccc(N4CCNCC4C4CC4)nc23)c(C(F)(F)F)n1` (stereo not shown) [Example 29, 5-(2-cyclopropylpiperazin-1-yl)-N-[1-methyl-3-(trifluoromethyl)-1H-pyrazol-4-yl]pyrazolo[1,5-a]pyrimidine-3-carboxamide trifluoroacetate], the IC50 came out at 24 nM.

Consider `Cn1cc(NC(=O)c2cnn3ccc(N[C@H]4CC(F)(F)CC[C@H]4N)nc23)c(C(F)F)n1` (single isomer, unassigned) [Example 210, 5-{[(1S,2R)- or (1R,2S)-2-amino-5,5-difluorocyclohexyl]amino}-N-[3-(difluoromethyl)-1-methyl-1H-pyrazol-4-yl]pyrazolo[1,5-a]pyrimidine-3-carboxamide], for which the IC50 was 1 nM.

With `Cn1cc(NC(=O)c2cnn3ccc(N[C@@H]4CNC[C@@H](F)C4)nc23)c(C(F)F)n1` [Example 256, N-[3-(difluoromethyl)-1-methyl-1H-pyrazol-4-yl]-5-{[(3S,5S)-5-fluoropiperidin-3-yl]amino}pyrazolo[1,5-a]pyrimidine-3-carboxamide], the IC50 came out at 8 nM.

In the case of `Cn1cc(NC(=O)c2cnn3ccc(N[C@H]4CNCC[C@H]4F)nc23)c(C(F)(F)F)n1` (single isomer, unassigned) [Example 231, 5-{[(3R,4S)- or (3S,4R)-4-fluoropiperidin-3-yl]amino}-N-[1-methyl-3-(trifluoromethyl)-1H-pyrazol-4-yl]pyrazolo[1,5-a]pyrimidine-3-carboxamide], the IC50 was found to be 47 nM.

`O=C(Nc1cscc1C(F)F)c1cnn2ccc(N3C[C@H]4CC[C@@H]3CN4)nc12` (single isomer, unassigned) [Example 155, 5-[(1S,4S)- or (1R,4R)-2,5-diazabicyclo[2.2.2]oct-2-yl]-N-[4-(difluoromethyl)thiophen-3-yl]pyrazolo[1,5-a]pyrimidine-3-carboxamide trifluoroacetate]: the IC50 was found to be 32 nM.

In the case of `Cn1cc(NC(=O)c2cnn3ccc(N[C@H]4CNCC(F)(F)C4)nc23)c(C(F)F)n1` (single isomer, unassigned) [Example 235, N-[3-(difluoromethyl)-1-methyl-1H-pyrazol-4-yl]-5-{[(3S)- or (3R)-5,5-difluoropiperidin-3-yl]amino}pyrazolo[1,5-a]pyrimidine-3-carboxamide], the IC50 amounted to 0.7 nM.

For the compound `Cn1cc(NC(=O)c2cnn3ccc(N4CC5CC4CCN5)nc23)c(C(F)(F)F)n1` (stereo not shown) [Example 74, 5-(2,6-diazabicyclo[3.2.1]oct-6-yl)-N-[1-methyl-3-(trifluoromethyl)-1H-pyrazol-4-yl]pyrazolo[1,5-a]pyrimidine-3-carboxamide trifluoroacetate], the IC50 worked out at 41 nM.

With `N#Cc1ccccc1NC(=O)c1cnn2ccc(N[C@@H]3CCCC[C@@H]3N)nc12` [Example 265, 5-(((1R,2S)-2-Aminocyclohexyl)amino)-N-(2-cyanophenyl)pyrazolo[1,5-a]pyrimidine-3-carboxamide], the IC50 came to 1 nM.

On to `Cn1cc(NC(=O)c2cnn3ccc(N4C[C@@H](N)C[C@H](F)C4)nc23)c(C(F)F)n1` [Example 248, 5-[(3S,5S)-3-amino-5-fluoropiperidin-1-yl]-N-[3-(difluoromethyl)-1-methyl-1H-pyrazol-4-yl]pyrazolo[1,5-a]pyrimidine-3-carboxamide trifluoroacetate], for which the half-maximal inhibitory concentration (IC50) worked out at 0.9 nM.

For the compound `N#Cc1cscc1NC(=O)c1cnn2ccc(N3CCCNCC3)nc12` [Example 141, N-(4-cyanothiophen-3-yl)-5-(1,4-diazepan-1-yl)pyrazolo[1,5-a]pyrimidine-3-carboxamide trifluoroacetate], the IC50 was 359 nM.

Turning to `Cn1cc(NC(=O)c2cnn3ccc(N[C@@H]4CNC[C@H](F)C4)nc23)c(C(F)F)n1` [Example 259, N-[3-(difluoromethyl)-1-methyl-1H-pyrazol-4-yl]-5-{[(3S,5R)-5-fluoropiperidin-3-yl]amino}pyrazolo[1,5-a]pyrimidine-3-carboxamide], the IC50 was 156 nM.

Consider `Cn1cc(NC(=O)c2cnn3ccc(N[C@H]4CNCCC4(F)F)nc23)c(C(F)(F)F)n1` (single isomer, unassigned) [Example 243, 5-[(R or S)-(4,4-difluoropiperidin-3-yl)amino]-N-[1-methyl-3-(trifluoromethyl)-1H-pyrazol-4-yl]pyrazolo[1,5-a]pyrimidine-3-carboxamide trifluoroacetate], for which the IC50 amounted to 0.5 nM.

Turning to `Cn1cc(NC(=O)c2cnn3ccc(N4CC5CCC(C4)N5)nc23)c(C(F)F)n1` [Example 172, 5-(3,8-diazabicyclo[3.2.1]oct-3-yl)-N-[3-(difluoromethyl)-1-methyl-1H-pyrazol-4-yl]pyrazolo[1,5-a]pyrimidine-3-carboxamide trifluoroacetate], the IC50 worked out at 1 nM.

On to `Cn1cc(NC(=O)c2cnn3ccc(N4CCCNCC45CC5)nc23)c(C(F)(F)F)n1` [Example 98, 5-(4,8-diazaspiro[2.6]non-4-yl)-N-[1-methyl-3-(trifluoromethyl)-1H-pyrazol-4-yl]pyrazolo[1,5-a]pyrimidine-3-carboxamide trifluoroacetate], for which the IC50 was 33 nM.

For `Cn1cc(NC(=O)c2cnn3ccc(N4CCNCC4C(F)(F)F)nc23)c(C(F)(F)F)n1` (stereo not shown) [Example 215, N-[1-methyl-3-(trifluoromethyl)-1H-pyrazol-4-yl]-5-[2-(trifluoromethyl)piperazin-1-yl]pyrazolo[1,5-a]pyrimidine-3-carboxamide trifluoroacetate], the IC50 turned out to be 121 nM.

On to `Cn1cc(NC(=O)c2cnn3ccc(N[C@H]4CCCCC[C@H]4N)nc23)c(C(F)(F)F)n1` (relative stereo) [Example 33, 5-{[cis-2-aminocycloheptyl]amino}-N-[1-methyl-3-(trifluoromethyl)-1H-pyrazol-4-yl]pyrazolo[1,5-a]pyrimidine-3-carboxamide], for which the IC50 was 2 nM.

As to `CC(C)(C)n1cc(NC(=O)c2cnn3ccc(N[C@@H]4CCCC(F)(F)[C@@H]4N)nc23)c(C(F)(F)F)n1` [Example 49, 5-{[(1R,2R)-2-amino-3,3-difluorocyclohexyl]amino}-N-[1-tert-butyl-3-(trifluoromethyl)-1H-pyrazol-4-yl]pyrazolo[1,5-a]pyrimidine-3-carboxamide trifluoroacetate], the IC50 is 890 nM.

On to `N[C@H]1CCCC[C@H]1Nc1ccn2ncc(C(=O)Nc3ccsc3)c2n1` [Example 181, 5-{[(1R,2S)-2-aminocyclohexyl]amino}-N-thiophen-3-ylpyrazolo[1,5-a]pyrimidine-3-carboxamide trifluoroacetate], for which the IC50 amounted to 54 nM.

Turning to `O=C(Nc1ccccc1Br)c1cnn2ccc(N3CC4CCC3CN4)nc12` (stereo not shown) [Example 112, N-(2-bromophenyl)-5-(2,5-diazabicyclo[2.2.2]oct-2-yl)pyrazolo[1,5-a]pyrimidine-3-carboxamide trifluoroacetate], the IC50 was determined as 955 nM.

On to `Cn1cc(NC(=O)c2cnn3ccc(N[C@@H]4CCCCNC4)nc23)c(C(F)(F)F)n1` (single isomer, unassigned) [Example 160, 5-[(3S)- or (3R)-azepan-3-ylamino]-N-[1-methyl-3-(trifluoromethyl)-1H-pyrazol-4-yl]pyrazolo[1,5-a]pyrimidine-3-carboxamide trifluoroacetate], for which the half-maximal inhibitory concentration (IC50) is 0.5 nM.

Regarding `Cn1cc(NC(=O)c2cnn3ccc(NC4CCCNCC4)nc23)c(C(F)(F)F)n1` (stereo not shown) [Example 17, 5-(azepan-4-ylamino)-N-[1-methyl-3-(trifluoromethyl)-1H-pyrazol-4-yl]pyrazolo[1,5-a]pyrimidine-3-carboxamide hydrochloride], the IC50 amounted to 14 nM.

For `O=C(Nc1ccccc1Cl)c1cnn2ccc(N3CCCNCC3)nc12` [Example 105, N-(2-chlorophenyl)-5-(1,4-diazepan-1-yl)pyrazolo[1,5-a]pyrimidine-3-carboxamide trifluoroacetate], the IC50 was determined as 1270 nM.

As for `N[C@H]1CCCC[C@H]1Nc1ccn2ncc(C(=O)Nc3ccsc3Cl)c2n1` [Example 116, 5-{[(1R,2S)-2-aminocyclohexyl]amino}-N-(2-chlorothiophen-3-yl)pyrazolo[1,5-a]pyrimidine-3-carboxamide trifluoroacetate], the IC50 was determined as 1 nM.

Turning to `N[C@H]1CCCC[C@H]1Nc1ccn2ncc(C(=O)Nc3cn(C4CC4)nc3C(F)(F)F)c2n1` [Example 293, 5-{[(1R,2S)-2-aminocyclohexyl]amino}-N-[1-cyclopropyl-3-(trifluoromethyl)-1H-pyrazol-4-yl]pyrazolo[1,5-a]pyrimidine-3-carboxamide trifluoroacetate], the IC50 stood at 0.4 nM.

For `Cn1cc(NC(=O)c2cnn3ccc(N[C@@H]4CCCC[C@@H]4N4CCOCC4)nc23)c(C(F)(F)F)n1` [Example 264, N-(1-Methyl-3-(trifluoromethyl)-1H-pyrazol-4-yl)-5-(((1R,2S)-2-morpholinocyclohexyl)amino)pyrazolo[1,5-a]pyrimidine-3-carboxamide], the concentration for half-maximal inhibition (IC50) stood at 19 nM.

As to `Cn1cc(NC(=O)c2cnn3ccc(N[C@@H]4CCCC(F)(F)[C@@H]4N)nc23)c(Br)n1` [Example 139, 5-{[(1R,2R)-2-amino-3,3-difluorocyclohexyl]amino}-N-(3-bromo-1-methyl-1H-pyrazol-4-yl)pyrazolo[1,5-a]pyrimidine-3-carboxamide trifluoroacetate], the IC50 came to 126 nM.

As a reminder, the IC50 is the midpoint of a concentration-inhibition curve.
